Measurements as given in ChEMBL document CHEMBL1126795, “Amesergide and structurally related nor-D-ergolines: 5HT2 receptor interactions in the rat” (J Med Chem, 1993).

Assay: Concentration required to inhibit pressor response to serotonin after 15 min i.v. administration of compound mediated via activation of vascular 5-HT2 receptors in rat
Assay type: functional, organism-based

Concentration [mg/kg]	Compound
1	CN(CCC(=O)NC1CCCCC1)[C@H]1Cc2cccc3[nH]cc(c23)C1
1	CN(CCC(=O)NC1CCCCC1)[C@@H]1Cc2cccc3[nH]cc(c23)C1
1	CCCn1cc2c3c(cccc31)C[C@@H](N(C)CCC(=O)NC1CCCCC1)C2
